Laboratory results reported in ChEMBL document CHEMBL1149996, “Combined glycomimetic and multivalent strategies for the design of potent selectin antagonists” (Bioorg Med Chem Lett, 1996).

Target: T1, E-selectin (Homo sapiens, UniProt P16581)
T1 sequence (P16581 whole entry): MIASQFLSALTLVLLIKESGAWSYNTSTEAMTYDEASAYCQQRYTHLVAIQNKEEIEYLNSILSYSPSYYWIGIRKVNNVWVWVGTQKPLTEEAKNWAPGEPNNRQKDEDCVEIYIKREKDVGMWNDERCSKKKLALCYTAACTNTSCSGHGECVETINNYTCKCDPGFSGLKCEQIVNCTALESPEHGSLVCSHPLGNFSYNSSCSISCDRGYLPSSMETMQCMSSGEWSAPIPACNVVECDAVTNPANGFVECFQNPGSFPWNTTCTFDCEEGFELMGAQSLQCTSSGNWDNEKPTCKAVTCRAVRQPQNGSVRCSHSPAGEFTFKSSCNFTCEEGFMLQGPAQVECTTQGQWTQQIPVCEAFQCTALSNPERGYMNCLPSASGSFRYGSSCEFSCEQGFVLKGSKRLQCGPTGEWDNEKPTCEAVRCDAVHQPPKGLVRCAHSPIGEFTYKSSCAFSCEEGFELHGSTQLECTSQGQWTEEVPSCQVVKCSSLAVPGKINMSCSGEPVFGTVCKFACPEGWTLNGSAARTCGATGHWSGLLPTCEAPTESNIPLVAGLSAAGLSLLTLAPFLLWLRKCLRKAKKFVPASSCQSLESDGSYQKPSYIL
Experiment: Inhibitory activity against Selectin E

With CC(=O)N[C@H]1[C@H]([C@H](O)[C@H](O)CO)O[C@@](O[C@H]2[C@@H](O)[C@@H](CO)O[C@@H](O[C@@H]([C@H](O[C@@H]3O[C@@H](C)[C@@H](O)[C@@H](O)[C@@H]3O)[C@H](C=O)NC(C)=O)[C@H](O)CO)[C@@H]2O)(C(=O)O)C[C@@H]1O [SIALYL LEWIS X] the IC50 was < 1000 µM.
